In US10085449B2, “N-[1-((6-chloropyridin-3-yl)methyl)pyridin-2(1H)-ylidene]-2,2,2- trifluoroacetamide for control of agricultural/horticultural pests” (priority 2010, dated 2018):
Where two headings read alike, the source gives them in different places.

Legend:
[1] = system: house fly crude enzyme extract; assay: In vitro metabolic test using house fly crude enzyme extract; format: in vitro ADME; settings: house fly crude enzyme extract with NADP+ regenerating system, 25° C., 40 hours, LC/MS
Protocol: As mentioned in Pest Management Science, 59(3), 347-352 (2003) and the Journal of Pesticide Science, 29(2), 110-116 (2004), imidacloprid is known to be inactivated by incurring oxidative metabolism, which is thought to be one mechanism of acquiring resistance to this agent. The following experiment was carried out to confirm the effects in pests which have acquired such resistance.
An amount of 10 mL of a potassium phosphate buffer solution (pH 7.4, containing 1 mM EDTA) was added to adult house flies (0.645 g), and the flies were thoroughly homogenized in a Physcotron (Niti-On Medical and Physical Instruments Manufacturing Co.). The homogenate was then centrifuged at 10,000 g for 15 minutes. The resulting supernatant was additionally centrifuged at 100,000 g for 60 minutes, giving a precipitate. The precipitate was dissolved in 1 mL of a potassium phosphate buffer, and the resulting solution was used as the crude enzyme extract. The enzyme extraction operations were all carried out on ice or at 4° C.
The reagents were mixed in the following proportions within a 1.5 mL tube, and the reaction was effected at 25° C. for 40 hours. Following the reaction, 1 mL of acetone was added and the mixture was stirred, following which the precipitate that formed was centrifuged at 12,000 rpm for 5 minutes. […]

[2] = system: cotton aphid; assay: whole plant or invertebrate; format: in vivo; settings: Aphis gossypii, foliar
Method in brief: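 Cucumber leaf discs (2.0 cm) sprayed with compound in 50% acetone/water with 0.05% Tween 20, air-dried, then infested with first-instar cotton aphids. Held at 25 °C under 16 h light/8 h dark; mortality counted after 3 days, two replicates.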

[3] = system: common cutworm; assay: whole plant or invertebrate; format: in vivo; settings: for Insecticidal effects (mortality), common cutworm third-instar larvae: foliar application
Method in brief: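 Cabbage leaf discs (5.0 cm) sprayed with compound at a set concentration in 50% acetone/water with 0.05% Tween 20, air dried, then infested with third-instar larvae. Held at 25° C., 16 h light/8 h dark; dead and live larvae counted after 3 days, two replicates, mortality (%) = dead/(live+dead)×100.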

[4] = read-out: Insecticidal effects (mortality), cotton aphid first-instar larvae

O=C(N=c1ccccn1Cc1ccc(Cl)nc1)C(F)(F)F [Compound 212, N-[1-((6-chloropyridin-3-yl)methyl)pyridin-2(1H)-ylidene]-2,2,2-trifluoroacetamide]
Sum of the surface area percentages for the metabolites [1]: 0.08% | mortality at 1.25 ppm [2, 4]: 100% | mortality at 5 ppm [2, 4]: 95% | mortality at 20 ppm [2, 4]: 100% | mortality at 100 ppm [2, 4]: 100% | mortality at 500 ppm [2, 4]: 100% | mortality at 20 ppm ([2]; in Cucumis sativus, 72 h): ≥ 80% | mortality at 100 ppm ([2]; in Cucumis sativus, 72 h): ≥ 80% | mortality at 500 ppm ([2]; in Cucumis sativus, 72 h): ≥ 80% | Insecticidal effects (mortality), common cutworm third-instar larvae ([3]; 100 ppm): 30 | Insecticidal effects (mortality), common cutworm third-instar larvae ([3]; 500 ppm): 100 | mortality at 500 ppm ([3]; foliar, 72 h): ≥ 80%
